Test results taken from patent publication US20250319110A1, “SURFACE CALR CHEMICAL INDUCERS” (THE CHILDREN'S MEDICAL CENTER CORPORATION, priority 2022, published 2025).
Structures can show the parent of a compound that is named as a salt. Where a SMILES comes first, the peptide text is derived from it. The star is where a group is joined. Cbz = O=C(OCc1ccccc1)*

These molecules were tested on reactive oxygen species (ROS) (assay: ROS production by CALR agonists (ROS+ / ROS− classification of screen hits)). Settings: CALR agonists that do not stimulate ROS production or only to negligible levels.
Assay type: cell-based, human
Procedure: To systematically evaluate pathways triggering surface CALR, a panel of 1200 bioactive small molecules in human cells were screened. Surface CALR expression was evaluated by imaging a CALR-antibody coupled with a fluorophore and by a SPLIT-TURBO ID construct targeting the association of […] (Cadherin 2), a membrane protein, and CALR. 93 out of 1200 compounds screened increased surface CALR with a robust dosage response. Chemical annotation further supported that ROS+ drugs were associated with FOXO1A and oxidative stress, while the ROS− drugs were associated with G protein-coupled receptor signaling and cellular calcium ion homeostasis. In vivo ROS− drugs induced macrophage-stem cell interaction and grooming behavior, while ROS+ drugs enhanced the macrophage-stem cell interaction, but not grooming. Collectively, the work described herein has identified ROS as a signal that upregulates surface CALR and promotes macrophage-stem cell interactions, safeguarding the development of stem cells that are stressed or damaged.
As described in the examples herein, some CALR agonists do stimulate reactive oxygen species (ROS) production; or stimulate ROS production to statistically significant levels. This group of CALR agonists are referred to herein as “ROS+ CALR agonists.” ROS+ CALR agonists include Ibudilast; zaprinast; FK-520; AG1478; bongkrekic acid; GW9508; fusidic acid; beta-lapachone; fusaric acid; fenspiride; zardaverine; docosahexaenoic acid, loxoprofen; AG1480; flufenamic acid; and MG-132.
This group of CALR agonists are referred to herein as “ROS− CALR agonists.” ROS-CALR agonists include DL-threo-1-Phenyl-2-palmitoylamino-3-morpholino-1-propanol; cambinol; ganciclovir; 8-bromo-GMP; arvanil; thiocitrulline; and isoguvacine. In some embodiments, an at least one ROS− CALR agonist can be selected from the group consisting of: DL-threo-1-Phenyl-2-palmitoylamino-3-morpholino-1-propanol; ganciclovir; 8-bromo-GMP; arvanil; thiocitrulline; and isoguvacine.
A chemical screen was conducted to identify surface CALR inducers in a ROS-associated and a ROS-independent manner (FIG. 4). Hits from the screen was validated in vivo as CALR inducers (FIGS. 5A-5B). ROS− drugs tended to induce macrophage-stem cell interaction and proliferation. ROS+ drugs tended to promote dooming (FIGS. 6A-6C).

Compound | ROS production class of CALR agonist
CCCCC/C=C\C/C=C\C/C=C\C/C=C\CCCC(=O)NCc1ccc(O)c(OC)c1 [arvanil, N-vanillylarachidonamide] | ROS−
O=C(O)C1=CCNCC1 [isoguvacine, 1,2,3,6-tetrahydropyridine-4-carboxylic acid] | ROS−
CSC(=N)NCCC[C@H](N)C(=O)O.Cl.Cl [thiocitrulline, N^5-[imino(methylthio)methyl]-L-ornithine, dihydrochloride] | ROS−
O=c1[nH]c(=S)[nH]c(-c2ccccc2)c1Cc1c(O)ccc2ccccc12 [cambinol, 5-[(2-hydroxynaphthalen-1-yl)methyl]-6-phenyl-2-sulfanylidene-1H-pyrimidin-4-one] | ROS−
CCCCCCCCCCCCCCCC(=O)N[C@H](CN1CCOCC1)[C@H](O)c1ccccc1 (racemic) [DL-threo-1-Phenyl-2-palmitoylamino-3-morpholino-1-propanol] | ROS−
Nc1nc(O)c2ncn(COC(CO)CO)c2n1 [ganciclovir, 2-Nor-2′-deoxyguanosine] | ROS−
Nc1nc2c(nc(Br)n2[C@@H]2O[C@H](COP(=O)(O)O)[C@@H](O)[C@H]2O)c(=O)[nH]1 [8-bromo-GMP, 8-bromo-guanosine monophosphate] | ROS−

Same assay, conditions: CALR agonists that stimulate ROS production

Compound | ROS production class of CALR agonist
CC1(C)CCC2=C(O1)c1ccccc1C(=O)C2=O [beta-lapachone, 2,2-dimethyl-3,4-dihydrobenzo[h]chromene-5,6-dione] | ROS+
O=C1NCC2(CCN(CCc3ccccc3)CC2)O1 [fenspiride, 8-(2-phenylethy)-1-oxa-3,8-diazaspiro[4.5]decan-2-one, monohydrochloride] | ROS+
COc1cc2ncnc(Nc3cccc(Cl)c3)c2cc1OC [AG1478, N-(3-chlorophenyl)-6,7-dimethoxyquinazolin-4-amine] | ROS+
CCCCc1ccc(C(=O)O)nc1 [fusaric acid] | ROS+
CC(C)C[C@@H](C=O)NC(=O)[C@H](CC(C)C)NC(=O)[C@H](CC(C)C)NC(=O)OCc1ccccc1 [MG-132, benzyl N-[(2S)-4-methyl-1-[[(2S)-4-methyl-1-[[(2S)-4-methyl-1-oxopentan-2-yl]aamino]-1-oxopentan-2-yl]amino]-1-oxopentan-2-yl]carbamate] (Cbz-Leu-Leu-Leu-aldehyde) | ROS+
CO[C@H](C/C=C\C=C\CC/C=C/C[C@H](C)/C=C/C(=C\C(=O)O)CC(=O)O)/C(C)=C\C=C(/C)C(=O)O [bongkrekic acid, (2E,4Z,6R,8Z,10E,14E,17S,18E,20Z)-20-(carboxymethyl)-6-methoxy-2,5,17-trimethyldocosa-2,4,8,10,14,18,20-heptaenedioic acid] | ROS+
CC(=O)O[C@H]1C[C@@]2(C)[C@@H](C[C@@H](O)[C@H]3[C@@]4(C)CC[C@@H](O)[C@@H](C)[C@@H]4CC[C@@]32C)/C1=C(\CCC=C(C)C)C(=O)O [fusidic acid] | ROS+
O=C(O)CCc1ccc(NCc2cccc(Oc3ccccc3)c2)cc1 [GW9508, 4-[[(3-phenoxyphenyl)methyl]amino]-benzenepropanoic acid] | ROS+
CC[C@@H]1/C=C(\C)C[C@H](C)C[C@H](OC)[C@H]2O[C@@](O)(C(=O)C(=O)N3CCCC[C@H]3C(=O)O[C@H](/C(C)=C/[C@@H]3CC[C@@H](O)[C@H](OC)C3)[C@H](C)[C@@H](O)CC1=O)[C@H](C)C[C@@H]2OC [FK-520, ascomycin] | ROS+
CCCOc1ccccc1-c1nc2n[nH]nc2c(=O)[nH]1 [zaprinast, 5-(2-propoxyphenyl)-2,6-dihydrotriazolo[4,5-d]pyrimidin-7-one] | ROS+
CC(C)C(=O)c1c(C(C)C)nn2ccccc12 [Ibudilast, 2-methyl-1-(2-propan-2-ylpyrazolo[1,5-a]pyridin-3-yl)propan-1-one] | ROS+
CC(C(=O)O)c1ccc(CC2CCCC2=O)cc1 (racemic) [loxoprofen, (RS)-2-{4-[(2-oxocyclopentyl)methyl]phenyl}propanoic acid] | ROS+
O=C(O)c1ccccc1Nc1cccc(C(F)(F)F)c1 [flufenamic acid, 2-[3-(trifluoromethyl)anilino]benzoic acid] | ROS+
COc1cc(-c2ccc(=O)[nH]n2)ccc1OC(F)F [zardaverine, 6-[4-(difluoromethoxy)-3-methoxyphenyl]-3(2H)-pyridazinone] | ROS+
CC/C=C\C/C=C\C/C=C\C/C=C\C/C=C\C/C=C\CCC(=O)O [docosahexaenoic acid] | ROS+
